Numbers after ± are expanded uncertainties.
Assays:
[1] = 298.15 K; 101.33 kPa; Liquid; Vibrating tube method
[2] = refractive index (Na D-line) (dimensionless); settings: 298.15 K; 101.33 kPa; Liquid; Standard Abbe refractometry
[3] = excess molar enthalpy (molar enthalpy of mixing); xn = mol fraction of the nth substance listed; settings: 298.15 K, 101 kPa, Liquid, Calvet calorimetry

`CCCCCCO` [hexan-1-ol] gave a mass density [1] of 815.2 ± 0.64 kg/m3 and a refractive index [2] of 1.4165 ± 0.0006.
In the case of `OCc1ccccc1` [benzenemethanol] + CCCCO, the excess molar enthalpy ([3]; x1 = 0.0976) is reported as 0.0203 ± 0.000526 kcal/mol, the excess molar enthalpy ([3]; x1 = 0.1973) is reported as 0.0356 ± 0.000837 kcal/mol and the excess molar enthalpy ([3]; x1 = 0.295) is reported as 0.0469 ± 0.00105 kcal/mol. It also gave an excess molar enthalpy ([3]; x1 = 0.396) of 0.0528 ± 0.0012 kcal/mol, an excess molar enthalpy ([3]; x1 = 0.4931) of 0.0552 ± 0.00124 kcal/mol and an excess molar enthalpy ([3]; x1 = 0.6029) of 0.0507 ± 0.00115 kcal/mol. It also gave an excess molar enthalpy ([3]; x1 = 0.7039) of 0.0428 ± 0.00098 kcal/mol, an excess molar enthalpy ([3]; x1 = 0.8026) of 0.0317 ± 0.000741 kcal/mol and an excess molar enthalpy ([3]; x1 = 0.9017) of 0.0174 ± 0.000454 kcal/mol.
With `OCc1ccccc1` [benzenemethanol] + CCCCCO the excess molar enthalpy ([3]; x1 = 0.1044) was 0.0229 ± 0.000574 kcal/mol, the excess molar enthalpy ([3]; x1 = 0.1968) was 0.0403 ± 0.000932 kcal/mol and the excess molar enthalpy ([3]; x1 = 0.2902) was 0.054 ± 0.00122 kcal/mol. The excess molar enthalpy ([3]; x1 = 0.3864) was 0.0635 ± 0.00141 kcal/mol, the excess molar enthalpy ([3]; x1 = 0.4838) was 0.0681 ± 0.00151 kcal/mol and the excess molar enthalpy ([3]; x1 = 0.5999) was 0.0648 ± 0.00143 kcal/mol. For the same molecule, the excess molar enthalpy ([3]; x1 = 0.6988) was 0.0576 ± 0.00129 kcal/mol, the excess molar enthalpy ([3]; x1 = 0.7995) was 0.0444 ± 0.001 kcal/mol and the excess molar enthalpy ([3]; x1 = 0.8992) was 0.0253 ± 0.000621 kcal/mol.
`CO` [methanol] showed a mass density [1] of 786.5 ± 0.15 kg/m3 and a refractive index [2] of 1.3266 ± 0.0005.
`OCc1ccccc1` [benzenemethanol] + CO gave an excess molar enthalpy ([3]; x1 = 0.07) of -0.00363 ± 0.000215 kcal/mol, an excess molar enthalpy ([3]; x1 = 0.1388) of -0.00798 ± 0.000287 kcal/mol and an excess molar enthalpy ([3]; x1 = 0.2057) of -0.0136 ± 0.000382 kcal/mol. It also gave an excess molar enthalpy ([3]; x1 = 0.2728) of -0.0189 ± 0.000478 kcal/mol, an excess molar enthalpy ([3]; x1 = 0.3404) of -0.024 ± 0.000598 kcal/mol and an excess molar enthalpy ([3]; x1 = 0.3992) of -0.0286 ± 0.000693 kcal/mol. For the same molecule, the excess molar enthalpy ([3]; x1 = 0.4995) was -0.0337 ± 0.000789 kcal/mol, the excess molar enthalpy ([3]; x1 = 0.5964) was -0.0345 ± 0.000813 kcal/mol and the excess molar enthalpy ([3]; x1 = 0.6972) was -0.0325 ± 0.000765 kcal/mol. It also gave an excess molar enthalpy ([3]; x1 = 0.7998) of -0.0258 ± 0.000621 kcal/mol and an excess molar enthalpy ([3]; x1 = 0.9028) of -0.0147 ± 0.000406 kcal/mol.
For `OCc1ccccc1` [benzenemethanol], the mass density [1] was 1041.99 ± 0.26 kg/m3 and the refractive index [2] was 1.5381 ± 0.0005.
`CCCCO` [butan-1-ol] gave a mass density [1] of 805.75 ± 0.12 kg/m3 and a refractive index [2] of 1.3974 ± 0.0005.
`OCc1ccccc1` [benzenemethanol] + CCCCCCO showed an excess molar enthalpy ([3]; x1 = 0.0954) of 0.025 ± 0.000621 kcal/mol, an excess molar enthalpy ([3]; x1 = 0.1959) of 0.0473 ± 0.00108 kcal/mol and an excess molar enthalpy ([3]; x1 = 0.291) of 0.0647 ± 0.00143 kcal/mol. It also gave an excess molar enthalpy ([3]; x1 = 0.3901) of 0.0775 ± 0.0017 kcal/mol, an excess molar enthalpy ([3]; x1 = 0.5072) of 0.0822 ± 0.00182 kcal/mol and an excess molar enthalpy ([3]; x1 = 0.598) of 0.0818 ± 0.00179 kcal/mol. It also gave an excess molar enthalpy ([3]; x1 = 0.6996) of 0.074 ± 0.00163 kcal/mol, an excess molar enthalpy ([3]; x1 = 0.8022) of 0.0576 ± 0.00129 kcal/mol and an excess molar enthalpy ([3]; x1 = 0.8986) of 0.0348 ± 0.000813 kcal/mol.
In the case of `CCO` [ethanol], the mass density [1] is reported as 785.15 ± 0.12 kg/m3 and the refractive index [2] is reported as 1.3595 ± 0.0005.
`CCCO` [propan-1-ol] gave a mass density [1] of 799.51 ± 0.12 kg/m3 and a refractive index [2] of 1.3833 ± 0.0005.
Molecule `OCc1ccccc1` [benzenemethanol] + CCO has an excess molar enthalpy ([3]; x1 = 0.0746) of 0.0175 ± 0.000454 kcal/mol, an excess molar enthalpy ([3]; x1 = 0.1514) of 0.0312 ± 0.000741 kcal/mol and an excess molar enthalpy ([3]; x1 = 0.2275) of 0.041 ± 0.000932 kcal/mol. It also gave an excess molar enthalpy ([3]; x1 = 0.3029) of 0.0474 ± 0.00108 kcal/mol, an excess molar enthalpy ([3]; x1 = 0.3785) of 0.0512 ± 0.00115 kcal/mol and an excess molar enthalpy ([3]; x1 = 0.4855) of 0.0533 ± 0.0012 kcal/mol. The excess molar enthalpy ([3]; x1 = 0.5857) was 0.0497 ± 0.00112 kcal/mol, the excess molar enthalpy ([3]; x1 = 0.6883) was 0.0422 ± 0.000956 kcal/mol and the excess molar enthalpy ([3]; x1 = 0.7915) was 0.0309 ± 0.000741 kcal/mol. For the same molecule, the excess molar enthalpy ([3]; x1 = 0.8949) was 0.0171 ± 0.000454 kcal/mol.
Molecule `OCc1ccccc1` [benzenemethanol] + CCCO has an excess molar enthalpy ([3]; x1 = 0.0984) of 0.0116 ± 0.000335 kcal/mol, an excess molar enthalpy ([3]; x1 = 0.1964) of 0.0202 ± 0.000502 kcal/mol and an excess molar enthalpy ([3]; x1 = 0.2873) of 0.0255 ± 0.000621 kcal/mol. It also gave an excess molar enthalpy ([3]; x1 = 0.3999) of 0.0295 ± 0.000693 kcal/mol, an excess molar enthalpy ([3]; x1 = 0.4987) of 0.0284 ± 0.000669 kcal/mol and an excess molar enthalpy ([3]; x1 = 0.5993) of 0.0256 ± 0.000621 kcal/mol. For the same molecule, the excess molar enthalpy ([3]; x1 = 0.6983) was 0.0207 ± 0.000526 kcal/mol, the excess molar enthalpy ([3]; x1 = 0.7996) was 0.0147 ± 0.000406 kcal/mol and the excess molar enthalpy ([3]; x1 = 0.8988) was 0.00772 ± 0.000263 kcal/mol.
In the case of `CCCCCO` [pentan-1-ol], the mass density [1] is reported as 810.88 ± 0.24 kg/m3 and the refractive index [2] is reported as 1.4088 ± 0.0005.

— the NIST ThermoML archive (doi:10.1021/je100095p)
